Assay [1] concerns Ba/F3-EML4-ALK wild type cell line. As to the kind of experiment: EML4-ALK Ba/F3 stable cell line proliferation assay (CellTiter-Glo). Particulars: Ba/F3 cells with EML4-ALK wild-type (variant 1), 48 hours incubation; read-out: EML4-ALK Ba/F3 cell proli. IC50. It is filed as cell-based. Here is the method: The EML4-ALK wild-type gene (variant 1) was synthesized at GenScript and cloned into pCDH-CMV-MCS-EF1-Puro plasmid (System Biosciences, Inc). Ba/F3-EML4-ALK wild type cell line was generated by infecting Ba/F3 cells with lentivirus containing EML4-ALK wide-type. Stable cell lines were selected by puromycin treatment, followed by IL-3 withdrawal. 5000 cells were seeded in 384 well white plate overnight before compound treatment.
(In general: Cellular ATP, detected with luciferase, serves as a proxy for viable cell number.)

Assay [2] has as its system SET-2 cells (harboring endogenous JAK2 V618F point mutation). The assay is described as follows: SET-2 cell proliferation assay (CellTiter-Glo). It is filed as cell-based. Particulars: Homo sapiens, SET-2 essential thrombocythemia cells, 72 hours incubation, read-out: SET2 cell proli. IC50.
Protocol: Essential thrombocythemia cell line SET-2 cells (harboring endogenous JAK2 V618F point mutation) or T cell lymphoma Karpas-299 cell line (harboring endogenous NPM-ALK fusion gene) were cultured in RPMI medium, supplemented with 10% fetal bovine serum and 100 U/mL of penicillin/streptomycin. 5000 cells were seeded in 384 well white plate for 24 hours before compounds treatment. Cell proliferation was measured using CellTiter-Glo luciferase-based ATP detection assay (Promega) following the manufactures's protocol after 72 hours incubation. IC50 determinations were performed using GraphPad Prism software (GraphPad, Inc., San Diego, CA).
Assay [3] deals with KM 12 cells (harboring endogenous TPM3-TRKA fusion gene). As to the kind of experiment: cells. Particulars: Homo sapiens, KM12, 72 h, read-out: KM 12 cell prolif. IC50 (nM). Here is the method: Colorectal cell lines KM 12 (harboring endogenous TPM3-TRKA fusion gene) cells were cultured in DMEM medium, supplemented with 10% fetal bovine serum and 100 U/mL of penicillin/streptomycin. 5000 cells were seeded in 384 well white plate for 24 hours before compounds treatment. Cell proliferation was measured using CellTiter-Glo luciferase-based ATP detection assay (Promega) following the manufactures's protocol after 72 hours incubation. IC50 determinations were performed using GraphPad Prism software (GraphPad, Inc., San Diego, CA).
5000 cells were seeded in 384 well white plate for 24 hours before compounds treatment. Cell proliferation was measured using CellTiter-Glo luciferase-based ATP detection assay (Promega) following the manufactures's protocol after 72 hours incubation. IC50 determinations were performed using GraphPad Prism software (GraphPad, Inc., San Diego, CA).

As to `C[C@H]1CNC(=O)c2cnn3ccc(nc23)N[C@H](C)c2cc(F)ccc2O1` [Compound I, (7S,13R)-11-fluoro-7,13-dimethyl-6,7,13,14-tetrahydro-1,15-ethenopyrazolo[4,3-f][1,4,8,10]benzoxatriazacyclotridecin-4(5H)-one], the IC50 in assay [1] came out at 21.1 nM; in assay [2], 242 nM; in assay [3], 0.5 nM.

(Values after patent US12187739B2, “Diaryl macrocycle polymorph” (TURNING POINT THERAPEUTICS, INC., priority 2015, dated 2025).)
